# From patent US4338330A, “Benzimidazole derivatives, their use, and compositions containing these derivatives” (Continental Pharma, priority 1979, dated 1982)
# “Also recorded” adds a separate entry of the source.
# How the values were obtained:
# [1] = test system: tachycardia caused by isoprotenenol; test: β-lytic activity in vigile rat (antagonism of tachycardia caused by isoproterenol); assay type: in vivo; conditions: 10 mg/kg orally; isoproterenol 0.1 mg/kg transcutaneously
# β1 cardiac receptors [2] = target: T1, β1 cardiac receptors (Cavia porcellus, UniProt H0W3H1); test: β-lytic activity: inhibition of inotrope response to isoproterenol of electrically stimulated left auricles (pA2); set-up: species or system guinea pig; conditions: isoproterenol, electrically stimulated left auricles; read-out: β-lytic activity, pA2 auricles inotrope response (converted)
# T1 construct: chronotropic response to noradrenaline of guinea pig auricles; from tissue; host or cells: guinea pig auricles (chronotropic response); electrically stimulated guinea pig left auricles (inotropic response)
# T1 sequence (H0W3H1 1-470): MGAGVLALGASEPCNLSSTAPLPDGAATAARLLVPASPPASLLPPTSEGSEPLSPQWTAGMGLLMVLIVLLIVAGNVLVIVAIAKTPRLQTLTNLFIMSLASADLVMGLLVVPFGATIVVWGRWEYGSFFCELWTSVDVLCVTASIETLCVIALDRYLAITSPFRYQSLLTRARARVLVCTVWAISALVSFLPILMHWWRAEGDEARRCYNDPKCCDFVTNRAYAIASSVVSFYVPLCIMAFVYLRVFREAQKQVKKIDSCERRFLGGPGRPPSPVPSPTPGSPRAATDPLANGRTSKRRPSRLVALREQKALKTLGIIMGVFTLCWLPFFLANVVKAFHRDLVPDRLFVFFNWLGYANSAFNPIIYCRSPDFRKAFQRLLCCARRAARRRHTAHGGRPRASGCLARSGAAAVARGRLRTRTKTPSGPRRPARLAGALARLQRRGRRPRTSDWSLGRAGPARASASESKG
# Protocol: (§1) The effect on β1 cardiac receptors is measured by inhibition of the chronotropic response to noradrenaline of guinea pig auricles and of the inotrope response to isoproterenol of guinea pig left auricles which were electrically stimulated. The cardioselectivity is appreciated by measuring the antagonist effect at the level of β2 receptors of the guinea pig trachea. To this end, a tracheal chain is contracted by a maximum concentration of histamine and inhibition of relaxation by isoproterenol is measured. The values calculated for cardioselectivity are obtained by considering the difference between pA2 values of the chronotrope response and the relaxation on the one hand (1st column) and of the inotrope response and relaxation on the other hand (2nd column).
# [3] = test system: chronotropic response to noradrenaline of isolated guinea pig auricles; test: β-lytic effect on the chronotropic response to noradrenaline of isolated auricles
# Protocol: (§2) The β-lytic effect was searched on the chronotropic response to noradrenaline of isolated guinea pig auricles. Auricles were incubated for 20 minutes in a Tyrode solution at 29° C. in the presence of the substance to be tested at the concentration of 10^-6 M. A positive (+) or negative (-) chronotrope effect of the substance was noted using the following scores:
# Then, the chronotrope effect of cumulative increasing concentrations of noradrenaline was recorded. The pD2 (-log CE50) value was calculated. A score of β-lytic activity of the substance was given as follows:
# If the score at concentration of 10^-6 M was 3 or 4, the effect of the substance was examined at concentration of 10^-7 M and a score was recorded according to the same procedure.
# [4] = target: T2, β2 receptors of the guinea pig trachea (Cavia porcellus, UniProt Q8K4Z4); test: Antagonist effect on relaxation of trachea by isoproterenol (pA2); conditions: histamine-contracted tracheal chain, read-out: β-lytic activity, pA2 trachea relaxation (converted)
# T2 construct: β2 receptors of the guinea pig trachea; from tissue; host or cells: guinea pig tracheal chain contracted by histamine
# T2 sequence (Q8K4Z4 whole entry): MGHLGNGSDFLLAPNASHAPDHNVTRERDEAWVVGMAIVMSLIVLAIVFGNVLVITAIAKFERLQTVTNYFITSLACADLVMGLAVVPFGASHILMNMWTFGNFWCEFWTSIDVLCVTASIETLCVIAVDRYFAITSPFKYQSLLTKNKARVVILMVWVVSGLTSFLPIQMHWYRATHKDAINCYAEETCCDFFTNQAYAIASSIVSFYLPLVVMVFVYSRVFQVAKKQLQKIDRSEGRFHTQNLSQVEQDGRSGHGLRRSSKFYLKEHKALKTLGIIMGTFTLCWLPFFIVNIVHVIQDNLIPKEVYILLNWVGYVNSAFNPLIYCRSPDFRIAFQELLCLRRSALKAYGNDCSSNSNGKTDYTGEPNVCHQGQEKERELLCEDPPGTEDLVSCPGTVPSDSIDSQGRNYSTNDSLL
# Protocol: as §1
# [5] = test system: β1 cardiac receptors versus β2 tracheal receptors; test: Cardioselectivity (auricles versus trachea); set-up: species or system guinea pig
# Protocol: as §1, with “column). For these various experiences, pA2 is calculated according to the Van Rossum method (Arch. Inern. Pharmacodyn., 143, 299-330, 1963).” for “column).”
# [6] = Antihypertensive activity, oral, unanesthetized spontaneously hypertensive rats; assay type: in vivo; conditions: 60 mg/kg oral
# Protocol: […] Only rats having a systolic pressure of 180 to 220 mm Hg are used. Two rats are used by product. The treatments are administered without the knowledge of the person making the measure.
# The antihypertensive effects were recorded according to a score followed by an index. The scoring system is as follows.
# The index is calculated by multiplying the systolic pressure difference (cmHg) measured every 30 minutes after the treatment, by a coefficient of 1 to 6 corresponding to times of 30 to 180 minutes.
# [7] = test system: guinea pig ileum contractions induced by histamine; test: Antispasmodic activity against ileum contractions induced by histamine
# Protocol: (§3) The antispasmodic activity of the studied substances was examined against guinea pig ileum contractions induced by histamine and acetylcholine.
# (§4) These experiences allow to make it obvious an antihistaminic, anticholinergic or musculotrope activity. The response to the contracting agent (sub-maximum concentration) is obtained every 5 minutes before and after injection of increasing concentrations of tested products (10^-7 M to 10^-4 M). The inhibition percentage under the influence of tested products is calculated and the theoretical concentration giving 50% of inhibition is graphically determined for each experience. These values are expressed in -log CI50 (M).
# β1 cardiac receptors [8] = target: T1, β1 cardiac receptors; test: β-lytic activity: inhibition of chronotropic response to noradrenaline of auricles (pA2); set-up: species or system guinea pig
# Protocol: as §1
# [9] = test system: guinea pig ileum contractions induced by acetylcholine; test: Antispasmodic activity against ileum contractions induced by acetylcholine
# Protocol: as §3, §4
# [10] = test system: isolated guinea pig auricles; test: Chronotrope effect of the substance on isolated auricles; conditions: 10^-6 M, 20 minutes, Tyrode, 29° C.
# Protocol: as §2, with “scores: […]” for “scores:”
# platelet agglutination = test: Inhibition of platelet agglutination in plasma (turbidimetric method, Thrombofax); assay type: cell-based; conditions: plasma rich in platelets, preincubated 4 minutes
# Protocol: The measure of platelet agglutination inhibition was made according to the turbidimetric method of G. V. R. Born and M. J. Cross (J. Physiol., 168, 178, […]). The plasma rich in platelets was preincubated for 4 minutes before addition of the inducing agent, namely Thrombofax. The variations of turbidity were recorded for a period of 10 minutes with a "Chronolog" agglutinometer. The inhibition of the maximum amplitude of agglutination was measured.
# [11] = LD50 in mice, oral (Lichtfield and Wilcoxon method); assay type: in vivo; conditions: mouse, in vivo, po, read-out: LD50
# Protocol: LD50 were determined according to the Lichtfield and Wilcoxon method (J. Pharmacol. Exp. Ther. 96, 99, 1949) and expressed in mg/kg. The products were administered to mice orally.
# cardiac receptors = test: Cardioselectivity in vivo, anesthetised dog: cardiac receptors; conditions: 30 μg/kg i.v.
# peripheral β2 receptors = test: Cardioselectivity in vivo, anesthetised dog: peripheral β2 receptors; conditions: 30 μg/kg i.v.
compound,measurement,setting,value
"CC(C)NCC(O)COc1ccc(-c2nc3ccccc3[nH]2)cc1 (stereo not shown) [Compound 1, 2-[4-(3-isopropylamino-2-hydroxypropoxy)phenyl]benzimidazole]",β-lytic activity in vigile rat,[1],demonstrated
same,Kb,β1 cardiac receptors [2],0.0355 µM
same,β-lytic effect (score),[3]; 10^-6 M,3 (if 6.00≥pD2 ≥5.51)
same,β-lytic effect (score),[3]; 10^-7 M,2 (if 6.40≥pD2 ≥6.01)
same,Kb,[4],28.8 µM
same,Cardioselectivity,"[5]; Table III, from pA2 auricles and trachea",1.73
same,times more active on β cardiac receptors than on β2 receptors,[5]; from difference of pA2 on auricles and trachea,2140 times
same,Cardioselectivity (in words),[5]; guinea pig auricles vs trachea,important cardioselectivity; also recorded: much higher than that of metopropol and atenolol
same,Antihypertensive activity (score),[6]; spontaneously hypertensive rats,++++ (reduction>50 mm Hg)
same,Antihypertensive activity (index),[6]; systolic pressure difference (cmHg) every 30 min multiplied by time coefficient 1 to 6,174
same,"Antispasmodic activity, Hist. (-log CI50 (M))",[7],5.18 -log CI50 (M)
same,Activity on β cardiac receptors (in words),β1 cardiac receptors [8],active β-agents on β cardiac receptors
same,Kb,"β1 cardiac receptors [8]; noradrenaline, read-out: β-lytic activity, pA2 auricles chronotrope response (converted)",0.0135 µM
same,"Antispasmodic activity, Ac. Chol. (-log CI50 (M))",[9],5.21 -log CI50 (M)
same,Chronotrope effect (score),[10],0 (if the frequency modification was comprised between +6 and -6)
same,Inhibition of platelet agglutination,platelet agglutination,active
same,LD50,[11],2300 mg/kg
same,Blocking of stimulation of cardiac receptors,cardiac receptors,blocks stimulation of cardiac receptors
same,Effect on stimulation of peripheral β2 receptors,peripheral β2 receptors,without affecting that of peripheral β2 receptors
